Measured values reported in patent US20050222251A1, “Dual inhibition of cyclooxygenase-2 and carbonic anhydrase” (AMOREPACIFIC CORPORATION, priority 2004, published 2005).
Read-outs that look alike come from different tables or passages of the source. Each block holds one compound with its values, some of them ahead of it.

Legend:
[1] = test system: carrageenan-induced thermal hyperalgesia; conditions: male SD rats, orally administered; cited from earlier work
[2] = Repeat dose toxicity study in monkeys
Description: Toxicokinetic studies were performed with treatment groups in monkeys. Satellite toxicokinetic groups were used for the toxicokinetic studies of treatment groups in rats. Animals at terminal sacrifice were evaluated for histopathological findings in the GI tract and other organs.

Human CA I [3] = target: T1, Human CA I (Homo sapiens, UniProt P00915); test: Inhibition assay for CA (Method B, esterase activity), CA I; assay type: biochemical; conditions: p-nitrophenylacetate hydrolysis, pH 7.6
T1 construct: purchased Sigma C-6165
T1 sequence (P00915 whole entry): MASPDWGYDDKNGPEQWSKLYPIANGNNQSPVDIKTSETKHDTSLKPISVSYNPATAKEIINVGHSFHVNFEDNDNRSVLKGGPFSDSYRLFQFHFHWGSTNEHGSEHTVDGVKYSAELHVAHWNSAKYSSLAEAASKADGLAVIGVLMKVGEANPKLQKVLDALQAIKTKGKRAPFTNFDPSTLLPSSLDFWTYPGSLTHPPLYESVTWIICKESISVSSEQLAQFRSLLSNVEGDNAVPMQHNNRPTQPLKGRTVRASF
Description: (§1) Compounds of Formula I were assessed for their inhibitory activities against human CAs according to methods described in a literature and a prior art. […] Details of the employed assay methods (Method A and Method B) for the inhibition of CAs are provided in the section of “MATERIALS AND METHODS” of this invention. Provided below are some of compounds of Formula I assayed for the inhibition of CAs. [drawing 6] [drawing 7] [drawing 8]
(§2) DMSO and buffer agents were obtained from Sigma. Distilled water was prepared in-house by distilling deionized water.
(§3) The employed method is briefly described as follows. An aqueous reaction mixture consisting of 2 Wilbur-Anderson units of CA, 4 mM p-nitrophenylacetate, 5% DMSO, 0.1 M Na2SO4, and 50 mM Tris-HCl buffer at pH 7.6 was prepared to contain a designated amount of inhibitor. The esterase activity of CA (the hydrolysis of p-nitrophenylacetate) was followed by the increases in absorbance at 405 nm using an ELISA reader at room temperature. The initial rate (slope of the initial absorbance data) data from the absorbance data were used to calculate % inhibition of CA at a designated concentration of inhibitor according to equation (7). % Inhibition=[1−(Initial Rate with Inhibitor)/(Initial Rate without Inhibitor)]×100 (7)

[4] = test system: adjuvant-induced arthritis; conditions: male Lewis rats, oral, bid; cited from earlier work
[5] = Repeat dose toxicity study in rats; assay type: in vivo, rat
[6] = Plasma protein binding, filtration method, HPLC; assay type: in vitro ADME; conditions: male, SD; pooled rat plasma at 1 μg/ml
Description: Plasma Protein Binding of Compound: Plasma protein binding was determined for a compound of Formula I by a filtration method. An aliquot of a compound stock solution in DMSO was added to a designated volume of freshly prepared pooled plasma from male SD rats. The plasma solution was then subjected to filtration using a centrifuge filter (Amicon YM-30) at 4000 g for 30 min. The filtrate was analyzed by HPLC to determine the concentration of the compound.

Human CA II [7] = target: T2, Human CA II (Homo sapiens, UniProt P00918); test: Inhibition assay for CA (Method A), CA II; assay type: biochemical; conditions: CO2 hydration, phenol red
T2 construct: purchased Sigma C-4936
Description: as §1, §2
(§4) Inhibition Assay for CA (Method A): CA inhibitory activities by COX-2 inhibitors of this invention were assessed by a previously reported method. […] Then the interval was measured from the initiation of the reaction to the point of the color change of the solution from purple to yellow. During the entire reaction, the reaction solution was kept bubbled with CO2.

[8] = Partitioning between plasma and erythrocytes, 14C-labeled compound; assay type: in vitro ADME
Description: Alternatively, partitioning between plasma and erythrocytes was determined by using a ^14C-labeled compound of Formula I and whole blood withdrawn as heparinized. Scintillation counting was used for analysis in place of HPLC.

[9] = Pharmacokinetic studies in rats; assay type: in vivo; conditions: rat, plasma
Description: Pharmacokinetic Studies in Rats: An appropriate amount of a compound suspended in 1% aqueous methylcelluose solution was administered to male SD rats by oral gavage. Blood samples were collected from the retro-orbital sinus at designated time points over 0 to 24 hours post dose. Plasma was separated from each withdrawn blood sample by centrifugation and the plasma sample was stored at 4° C. until HPLC analysis for the quantification of the compound. The plasma samples were analyzed by reverse phase HPLC using an appropriate internal standard and a pre-established calibration curve.

[10] = Plasma protein binding, filtration method, 14C-labeled compound; assay type: in vitro ADME; conditions: Sprague-Dawley (SD), rat, broad range of concentrations
Description: Alternatively, plasma protein binding was determined by a filtration method employing a ^14C-labeled compound of Formula I. Scintillation counting was used for analysis in place of HPLC.

Human CA II [11] = target: T2, Human CA II; test: Inhibition assay for CA (Method B, esterase activity), CA II; assay type: biochemical; conditions: p-nitrophenylacetate hydrolysis, pH 7.6
Description: as §1, §2, §3

Human CA I [12] = target: T1, Human CA I; test: Inhibition assay for CA (Method A), CA I; assay type: biochemical; conditions: CO2 hydration, phenol red
Description: as §1, §2, §4

[13] = cited from earlier work; for primary target sites of the GI adverse events: repeated oral administrations
[14] = human whole blood, FDA pharmacology review; cited from earlier work
[15] = cited from earlier work
[16] = FDA pharmacology review; valdecoxib in human whole blood; cited from earlier work
intraocular pressure = conditions: oral administration, hypertensive rabbits; cited from earlier work
[17] = repeated oral administrations for 4 weeks

Compound: CC1(C)OC(c2ccc(S(N)(=O)=O)cc2F)=C(c2cc(F)cc(F)c2)C1=O [Example 9, 5-{4-(aminosulfonyl)-2-fluorophenyl}-4-(3,5-difluorophenyl)-2,2-dimethyl-3(2H)furanone]
IC50 (Human CA II [7]): 630 nM | IC50 (Human CA I [12]): 4.7 µM

Compound: CC1(C)OC(c2ccc(S(N)(=O)=O)cc2)=C(c2cc(F)ccc2F)C1=O [Example 2, 5-{4-(aminosulfonyl)phenyl}-4-(2,5-difluorophenyl)-2,2-dimethyl-3(2H)furanone]
IC50 (Human CA II [7]): 740 nM | IC50 (Human CA I [12]): 3.2 µM

Compound: Cc1cnc(NC(=O)C2=C(O)c3ccccc3S(=O)(=O)N2C)s1 [Meloxicam]
primary target sites of the GI adverse events ([13]; rats): duodenum

Compound: CS(=O)(=O)c1ccc(C2=C(c3ccccc3)C(=O)OC2)cc1 [rofecoxib]
distribution ratio erythrocytes over plasma [14]: no noticeable preferential distribution | thromboembolic cardiovascular events ([15]; 25 mg/day, long term cancer prevention trial (APPROVe)): increased risk of thromboembolic cardiovascular events | plasma protein binding [16]: 87% | gastric toxicity ([13]; rats, doses where the intestinal toxicity began to come out): not associated with gastric toxicity | primary target sites of the GI adverse events ([13]; rats): jejunum and ileum

Compound: O=C(O)Cc1ccccc1Nc1c(Cl)cccc1Cl [diclofenac]
effect on intraocular pressure (intraocular pressure): failed to reduce the intraocular pressure

Compound: CC1(C)OC(c2ccc(S(N)(=O)=O)cc2F)=C(c2ccc(F)cc2)C1=O [Example 8, 5-{4-(aminosulfonyl)-2-fluorophenyl}-2,2-dimethyl-4-(4-fluorophenyl)-3(2H)furanone]
IC50 (Human CA II [7]): 420 nM | IC50 (Human CA I [12]): 1.9 µM

Compound: Cc1ccc(-c2cc(C(F)(F)F)nn2-c2ccc(S(N)(=O)=O)cc2)cc1 [celecoxib]
thromboembolic events ([15]; 400 mg/day and 800 mg/day, long term cancer prevention trial (APC)): increases in the thromboembolic events | gastric toxicity ([13]; rat, in vivo): not associated with gastric toxicity | primary target sites of the GI adverse events ([13]; rats): jejunum and ileum

Compound: COc1ccc2c(c1)c(CC(=O)O)c(C)n2C(=O)c1ccc(Cl)cc1 [indomethacin, reference compound]
ED50 in carrageenan-induced thermal hyperalgesia [1]: ~1.0 mg/kg | ED50 by adjuvant-induced arthritis [4]: 0.3 mg/kg/day

Compound: Cc1onc(-c2ccccc2)c1-c1ccc(S(N)(=O)=O)cc1 [valdecoxib]
effect on intraocular pressure (intraocular pressure): reduced intraocular pressure | thromboembolic events ([15]; acute use, coronary artery bypass graft patients): increase in the thromboembolic events | plasma protein binding [16]: 98% | gastric toxicity ([13]; rat, in vivo): not associated with gastric toxicity

More lines, main results first:

IC50 (Human CA I [3]): 290 nM | fraction unbound at 1 μg/ml [6]: < 0.01 | IC50 (Human CA II [7]): 800 nM | Cmax ([9]; male, SD, oral, 0.05 mg/kg, 82 ng/ml divided by 20, read-out: Cmax calculated for 0.1 mg/kg/day, bid (0.05 mg/kg)): 4.1 ng/mL | Cmax ([9]; oral 1 mg/kg, male SD rats, read-out: plasma Cmax): 82 ng/mL | fraction unbound [10]: ~0.1 | IC50 (Human CA II [11]): 63 nM | IC50 (Human CA I [12]): 3 µM
Compound: CC1(C)OC(c2ccc(S(N)(=O)=O)cc2)=C(c2cccc(F)c2)C1=O [Example 1, 5-{4-(aminosulfonyl)phenyl}-2,2-dimethyl-4-(3-fluorophenyl)-3(2H)furanone]
ED50 in carrageenan-induced thermal hyperalgesia [1]: 0.25 mg/kg | histopathological findings in the stomach ([2]; 4 weeks, one out of 18 subjects): one case of focal mucosal degeneration in the stomach | daily systemic exposure of the subject with the histopathological finding in the stomach ([2]; final day of the treatment): > 20,000 hr×ng/ml | histopathological findings in the intestines [2, 17]: not associated with positive histopathological findings in the intestines | ED50 by adjuvant-induced arthritis [4]: 0.1 mg/kg/day | primary target site of the intestinal adverse findings [5]: caecum | dose limiting adverse effects ([5]; oral, up to 4 weeks): Intestinal adverse effects (primarily in the caecum) | daily systemic exposure without positive histopathological findings in the stomach [5, 17]: ~30,000 hr×ng/ml | histopathological findings in the stomach ([5]; repeated oral administrations for 4 weeks, daily systemic exposure of ca 30,000 hr×ng/ml): no positive histopathological findings in the stomach | distribution to erythrocytes over plasma [8]: even more preferentially distribute to erythrocytes over plasma

IC50 (Human CA II [7]): 5400 nM | IC50 (Human CA I [12]): 9.1 µM
Compound: Cc1cc(C2=C(c3cccc(F)c3)C(=O)C(C)(C)O2)ccc1S(N)(=O)=O [Example 10, 5-{4-(aminosulfonyl)-3-methylphenyl}-2,2-dimethyl-4-(3-fluorophenyl)-3(2H)furanone]

IC50 (Human CA I [3]): 240 nM | IC50 (Human CA II [7]): 480 nM | IC50 (Human CA II [11]): 14 nM | IC50 (Human CA I [12]): 1.3 µM
Compound: CC1(C)OC(c2ccc(S(N)(=O)=O)c(F)c2)=C(c2cc(F)ccc2F)C1=O [Example 5, 5-{4-(aminosulfonyl)-3-fluorophenyl}-4-(2,5-difluorophenyl)-2,2-dimethyl-3(2H)furanone]

IC50 (Human CA I [3]): 210 nM | IC50 (Human CA II [7]): 450 nM | IC50 (Human CA II [11]): 27 nM | IC50 (Human CA I [12]): 1.7 µM
Compound: CC1(C)OC(c2ccc(S(N)(=O)=O)c(F)c2)=C(c2cccc(F)c2)C1=O [Example 4, 5-{4-(aminosulfonyl)-3-fluorophenyl}-2,2-dimethyl-4-(3-fluorophenyl)-3(2H)furanone]

IC50 (Human CA II [7]): 630 nM | IC50 (Human CA I [12]): 3.4 µM
Compound: CC1(C)OC(c2ccc(S(N)(=O)=O)c(F)c2)=C(c2cc(F)cc(F)c2)C1=O [Example 7, 5-{4-(aminosulfonyl)-3-fluorophenyl}-4-(3,5-difluorophenyl)-2,2-dimethyl-3(2H)furanone]

IC50 (Human CA II [7]): 910 nM | IC50 (Human CA I [12]): 5 µM
Compound: CC1(C)OC(c2ccc(S(N)(=O)=O)c(F)c2)=C(c2ccc(F)c(F)c2)C1=O [Example 6, 5-{4-(aminosulfonyl)-3-fluorophenyl}-4-(3,4-difluorophenyl)-2,2-dimethyl-3(2H)furanone]
